Laboratory results: US20250163047A1, “HETEROCYCLIC COMPOUNDS, COMPOSITIONS THEREOF, AND METHODS OF TREATMENT THEREWITH” (BeiGene, Ltd., priority 2022, published 2025)

What was measured:
Cbl-b (aa36-427) = target: T1, Cbl-b (aa36-427) (Homo sapiens, UniProt Q13191); assay: Co-expressed Cbl-b with BirA biochemical assay (CBLB/E2-Ub binding, HTRF); conditions: 0.6 nM Cbl-b co-expressed with BirA, HTRF; read-out: co-express CBLB/E2-Ub-binding assay IC50
T1 construct: Cbl-b (aa36-427, in-house); made in house
Source text: (§1) The assay in the absence of a Cbl-b/Cbl inhibitor, where phosphorylation of Cbl-b/Cbl by the Src kinase allows UbcH5B-Ub to bind to Cbl-b/Cbl and brings the Bodipy-Fluorescein tagged ubiquitin in proximity to the streptavidin-terbium bound to the N-terminal biotinylated Avi-tagged Cbl-b/Cbl. […] The lack of a FRET signal indicates Cbl-b/Cbl is inhibited by the Cbl-b/Cbl inhibitor.

Cbl (aa49-434) = target: T2, Cbl (aa49-434) (Homo sapiens, UniProt P22681); assay: Co-expressed Cbl with BirA biochemical assay (CBL/E2-Ub binding, HTRF); conditions: 0.6 nM Cbl co-expressed with BirA, read-out: co-express CBL/E2-Ub-binding assay IC50
T2 construct: Cbl (aa49-434, in-house); made in house
T2 sequence (P22681 49-434): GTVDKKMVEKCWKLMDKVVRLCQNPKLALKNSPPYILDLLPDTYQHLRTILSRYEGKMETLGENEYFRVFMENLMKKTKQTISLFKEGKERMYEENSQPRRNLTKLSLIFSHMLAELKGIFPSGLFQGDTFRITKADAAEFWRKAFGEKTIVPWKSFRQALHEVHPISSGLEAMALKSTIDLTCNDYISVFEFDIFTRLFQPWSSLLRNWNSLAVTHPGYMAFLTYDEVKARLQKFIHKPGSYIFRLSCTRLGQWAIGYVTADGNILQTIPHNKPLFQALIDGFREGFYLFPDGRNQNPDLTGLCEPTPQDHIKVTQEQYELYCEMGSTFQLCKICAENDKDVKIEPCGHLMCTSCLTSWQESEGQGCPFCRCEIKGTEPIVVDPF
Source text: as §1

T1 sequence (Q13191 36-427): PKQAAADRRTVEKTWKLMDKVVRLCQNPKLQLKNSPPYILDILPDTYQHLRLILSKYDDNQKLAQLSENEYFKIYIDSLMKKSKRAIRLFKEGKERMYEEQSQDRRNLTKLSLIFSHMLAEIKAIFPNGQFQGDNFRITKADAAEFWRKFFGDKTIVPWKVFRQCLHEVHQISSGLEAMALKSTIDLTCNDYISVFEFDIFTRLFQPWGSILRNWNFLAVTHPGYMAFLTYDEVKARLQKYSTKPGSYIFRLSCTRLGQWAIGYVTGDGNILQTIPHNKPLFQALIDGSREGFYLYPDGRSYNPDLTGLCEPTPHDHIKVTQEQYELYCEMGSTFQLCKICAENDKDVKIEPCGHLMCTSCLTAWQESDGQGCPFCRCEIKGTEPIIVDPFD

| Compound | IC50 (Cbl-b (aa36-427)) [nM] | IC50 (Cbl (aa49-434)) [nM] |
| --- | --- | --- |
| Cn1cnnc1[C@]1(c2cccc(NC(=O)c3cc(CNCC4CCC4)cn4c(Cl)cnc34)c2)C[C@H](C)C1 [Compound A57, 3-chloro-6-(((cyclobutylmethyl)amino)methyl)-N-(3-((1s, 3s)-3-methyl-1-(4-methyl-4H-1,2,4-triazol-3-yl)cyclobutyl)phenyl)imidazo[1,2-a]pyridine-8-carboxamide] | 0.6 | 1.8 |
| Cn1cnnc1[C@]1(c2cccc(NC(=O)c3cc(CNC4(C)CCC4)cn4c(F)cnc34)c2)C[C@H](CC#N)C1 [Compound A61, N-(3-((1s, 3s)-3-(cyanomethyl)-1-(4-methyl-4H-1,2,4-triazol-3-yl)cyclobutyl)phenyl)-3-fluoro-6-(((1-methylcyclobutyl)amino)methyl)imidazo[1,2-a]pyridine-8-carboxamide] | 1.2 | 11.1 |
| Cn1cnnc1C[C@]1(c2cccc(NC(=O)c3cc(CNCC4(C)CCCC4)cn4c(Cl)cnc34)c2)C[C@H](C#N)C1 [Compound A29, 3-chloro-N-(3-((1r, 3r)-3-cyano-1-((4-methyl-4H-1,2,4-triazol-3-yl)methyl)cyclobutyl)phenyl)-6-((((1-methylcyclopentyl)methyl)amino)methyl)imidazo[1,2-a]pyridine-8-carboxamide] | 1.3 | 2.3 |
| C[C@H](NCc1cc(C(=O)Nc2cccc([C@]3(c4nncn4C)C[C@@H](C)C3)c2)c2ncc(Cl)n2c1)C1CCC1 [Compound A69, 3-chloro-6-((((S)-1-cyclobutylethyl)amino)methyl)-N-(3-((1s,3R)-3-methyl-1-(4-methyl-4H-1,2,4-triazol-3-yl)cyclobutyl)phenyl)imidazo[1,2-a]pyridine-8-carboxamide] | 0.8 | 1.7 |
| Cn1cnnc1C[C@]1(c2cccc(NC(=O)c3cc(CNCC4(C)CCCC4)cn4ccnc34)c2)C[C@H](C#N)C1 [Compound A24, N-(3-((1r, 3r)-3-cyano-1-((4-methyl-4H-1,2,4-triazol-3-yl)methyl)cyclobutyl)phenyl)-6-((((1-methylcyclopentyl)methyl)amino)methyl)imidazo[1,2-a]pyridine-8-carboxamide] | 2.9 | 8.6 |
| Cc1cnc2c(C(=O)Nc3cncc([C@]4(c5nncn5C)C[C@@H](C)C4)c3)cc(CN[C@@H](C)C3CCC3)cn12 [Compound A63, 6-({[(1S)-1-cyclobutylethyl]amino}methyl)-3-methyl-N-{5-[(1r, 3s)-3-methyl-1-(4-methyl-1,2,4-triazol-3-yl)cyclobutyl]pyridin-3-yl}imidazo[1,2-a]pyridine-8-carboxamide] | 1.1 | 1.8 |
| Cn1cnnc1[C@]1(c2cccc(NC(=O)c3cc(CNC4(C)CCC4)cn4c(Cl)cnc34)c2)C[C@H](C)C1 [Compound A66, 3-chloro-N-(3-((1s, 3s)-3-methyl-1-(4-methyl-4H-1,2,4-triazol-3-yl)cyclobutyl)phenyl)-6-(((1-methylcyclobutyl)amino)methyl)imidazo[1,2-a]pyridine-8-carboxamide] | 1.1 | 3.4 |
| CCn1cnnc1[C@]1(c2cccc(NC(=O)c3cc(CNC4(C)CC4)cn4ccnc34)c2)C[C@H](C)C1 [Compound A85, N-(3-((1s, 3s)-1-(4-ethyl-4H-1,2,4-triazol-3-yl)-3-methylcyclobutyl)phenyl)-6-(((1-methylcyclopropyl)amino)methyl)imidazo[1,2-a]pyridine-8-carboxamide] | 3.4 | 26 |
| Cn1cnnc1[C@]1(c2cncc(NC(=O)c3cc(CNC4(C)CCC4)cn4c(Cl)cnc34)c2)C[C@H](C)C1 [Compound A82, 3-chloro-N-(5-((1s, 3s)-3-methyl-1-(4-methyl-4H-1,2,4-triazol-3-yl)cyclobutyl)pyridin-3-yl)-6-(((1-methylcyclobutyl)amino)methyl)imidazo[1,2-a]pyridine-8-carboxamide] | 0.7 | 1.8 |
| Cn1cnnc1[C@]1(c2cccc(NC(=O)c3cc(CNC4(C)CC4)cn4ccnc34)c2)C[C@@H](C)C1 [Compound A90, N-(3-((1r, 3r)-3-methyl-1-(4-methyl-4H-1,2,4-triazol-3-yl)cyclobutyl)phenyl)-6-(((1-methylcyclopropyl)amino)methyl)imidazo[1,2-a]pyridine-8-carboxamide] | 0.5 | 3.2 |
| C[C@H](NCc1cc(C(=O)Nc2cccc([C@]3(c4nncn4C)C[C@@H](CC#N)C3)c2)c2nccn2c1)C1CC1 [Compound A27, N-(3-((1s,3R)-3-(cyanomethyl)-1-(4-methyl-4H-1,2,4-triazol-3-yl)cyclobutyl)phenyl)-6-((((S)-1-cyclopropylethyl)amino)methyl)imidazo[1,2-a]pyridine-8-carboxamide] | 1.4 | 8 |

More lines, now with the values ahead:

| IC50 (Cbl-b (aa36-427)) [nM] | IC50 (Cbl (aa49-434)) [nM] | Compound |
| --- | --- | --- |
| 1.3 | 14.2 | C[C@H]1CCCN(Cc2cc(C(=O)Nc3cccc([C@]4(c5nncn5C)C[C@@H](CC#N)C4)c3)nc3c(F)c[nH]c23)C1 [Compound B11, N-(3-((1s,3R)-3-(cyanomethyl)-1-(4-methyl-4H-1,2,4-triazol-3-yl)cyclobutyl)phenyl)-3-fluoro-7-(((S)-3-methylpiperidin-1-yl)methyl)-1H-pyrrolo[3,2-b]pyridine-5-carboxamide] |
| 0.7 | 0.8 | C[C@@H]1CN(Cc2cc(C(=O)Nc3cccc([C@]4(c5nncn5C)C[C@@H](C)C4)c3)nc3c2NCC32CC2)CC[C@@H]1F [Compound C50, 7′-(((3R,4S)-4-fluoro-3-methylpiperidin-1-yl)methyl)-N-(3-((1s,3S)-3-methyl-1-(4-methyl-4H-1,2,4-triazol-3-yl)cyclobutyl)phenyl)-1′,2′-dihydrospiro[cyclopropane-1,3′-pyrrolo[3,2-b]pyridine]-5′-carboxamide] |
| 10.3 | 77.7 | C[C@@H]1CN(Cc2cc(C(=O)Nc3cccc([C@]4(c5nncn5C)C[C@@H](CC#N)C4)c3)nc3cc[nH]c23)C[C@H](C)C1(F)F [Compound B19, N-(3-((1s,3S)-3-(cyanomethyl)-1-(4-methyl-4H-1,2,4-triazol-3-yl)cyclobutyl)phenyl)-7-(((3R,5S)-4,4-difluoro-3,5-dimethylpiperidin-1-yl)methyl)-1H-pyrrolo[3,2-b]pyridine-5-carboxamide] |
| 0.8 | 2.3 | Cn1cnnc1[C@]1(c2cccc(NC(=O)c3cc(CNCC4CCC4)c4[nH]cc(F)c4n3)c2)C[C@H](C)C1 [Compound B36, 7-(((cyclobutylmethyl)amino)methyl)-3-fluoro-N-(3-((1s, 3s)-3-methyl-1-(4-methyl-4H-1,2,4-triazol-3-yl)cyclobutyl)phenyl)-1H-pyrrolo[3,2-b]pyridine-5-carboxamide] |
| 23.9 | 51.6 | C[C@H]1CCCN(Cc2cc(C(=O)Nc3cccc(C4(Cc5nncn5C)COC4)c3)nn3cccc23)C1 [Compound B12, N-(3-{3-[(4-methyl-1,2,4-triazol-3-yl)methyl]oxetan-3-yl}phenyl)-4-{[(3S)-3-methylpiperidin-1-yl]methyl}pyrrolo[1,2-b]pyridazine-2-carboxamide] |
| 1.3 | 5.4 | Cn1cnnc1[C@]1(c2cccc(NC(=O)c3cc(CNCC4CCCC4)c4c(n3)C(C)(C)CN4)c2)C[C@H](C)C1 [Compound C45, 7-{[(cyclopentylmethyl)amino]methyl}-3,3-dimethyl-N-{3-[(1r, 3s)-3-methyl-1-(4-methyl-1,2,4-triazol-3-yl)cyclobutyl]phenyl}-1H,2H-pyrrolo[3,2-b]pyridine-5-carboxamide] |
| 0.89 | 3.2 | CC(C)CNCc1cc(C(=O)Nc2cncc([C@]3(c4nncn4C)C[C@@H](C)C3)c2)nc2c(F)c[nH]c12 [Compound B48, 3-fluoro-7-((isobutylamino)methyl)-N-(5-((1s, 3s)-3-methyl-1-(4-methyl-4H-1,2,4-triazol-3-yl)cyclobutyl)pyridin-3-yl)-1H-pyrrolo[3,2-b]pyridine-5-carboxamide] |
| 2.2 | 6.1 | CC[C@H](C)NCc1cc(C(=O)Nc2cncc([C@]3(c4nncn4C)C[C@@H](C)C3)c2)nc2cc[nH]c12 [Compound B47, 7-((((S)-sec-butyl)amino)methyl)-N-(5-((1s,3R)-3-methyl-1-(4-methyl-4H-1,2,4-triazol-3-yl)cyclobutyl)pyridin-3-yl)-1H-pyrrolo[3,2-b]pyridine-5-carboxamide] |
| 6.3 | 100 | Cn1cnnc1[C@]1(c2cccc(NC(=O)c3cc(CNC4(C)CCC4)c4c(n3)C(C)(C)CO4)c2)C[C@H](CC#N)C1 [Compound C23, N-(3-((1s, 3s)-3-(cyanomethyl)-1-(4-methyl-4H-1,2,4-triazol-3-yl)cyclobutyl)phenyl)-3,3-dimethyl-7-(((1-methylcyclobutyl)amino)methyl)-2,3-dihydrofuro[3,2-b]pyridine-5-carboxamide] |
